Measurements from PubChem BioAssay (NCI).
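Five concentrations, 48 hours, 96-well plates. At the TGI there is no net growth.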

Experiments:
Experiment in all cases: NCI tumour cell line growth inhibition, 48 h
EKVX NSCLC = test system: EKVX NSCLC
K-562 leukemia = test system: K-562 leukemia
SK-OV-3 ovarian = test system: SK-OV-3 ovarian
HL-60(TB) leukemia = test system: HL-60(TB) leukemia
KM12 colon = test system: KM12 colon
SF-539 CNS = test system: SF-539 CNS
HCT-15 colon = test system: HCT-15 colon
M14 melanoma = test system: M14 melanoma
HCC-2998 colon = test system: HCC-2998 colon
SN12C renal = test system: SN12C renal
HT29 colon = test system: HT29 colon
HOP-62 NSCLC = test system: HOP-62 NSCLC
OVCAR-8 ovarian = test system: OVCAR-8 ovarian
HCT-116 colon = test system: HCT-116 colon
UO-31 renal = test system: UO-31 renal
UACC-257 melanoma = test system: UACC-257 melanoma
RPMI-8226 leukemia = test system: RPMI-8226 leukemia
SW-620 colon = test system: SW-620 colon
NCI-H460 lung = test system: NCI-H460 lung
SR leukemia = test system: SR leukemia

What does the source list for `Cc1ccc(Nc2nc(N)nc3c2ncn3C2OC(CO)C(O)C2O)cc1` (stereo not given)?
TGI (EKVX NSCLC): > 100 µM; TGI (K-562 leukemia): > 100 µM; TGI (SK-OV-3 ovarian): > 100 µM; TGI (HL-60(TB) leukemia): > 100 µM; TGI (KM12 colon): > 100 µM; TGI (SF-539 CNS): > 100 µM; TGI (HCT-15 colon): > 100 µM; TGI (M14 melanoma): > 100 µM; TGI (HCC-2998 colon): > 100 µM; TGI (SN12C renal): > 100 µM; TGI (HT29 colon): > 100 µM; TGI (HOP-62 NSCLC): > 100 µM; TGI (OVCAR-8 ovarian): > 100 µM; TGI (HCT-116 colon): > 100 µM; TGI (UO-31 renal): > 100 µM; TGI (UACC-257 melanoma): > 100 µM; TGI (RPMI-8226 leukemia): > 100 µM; TGI (SW-620 colon): > 100 µM

Which results are given for `NC(CCP(=O)(O)CCC1C=CC=CC1)C(=O)O` (stereo not given)?
TGI (EKVX NSCLC): > 100 µM; TGI (K-562 leukemia): > 100 µM; TGI (SK-OV-3 ovarian): > 100 µM; TGI (HL-60(TB) leukemia): > 100 µM; TGI (KM12 colon): > 100 µM; TGI (SF-539 CNS): > 100 µM; TGI (NCI-H460 lung): > 100 µM; TGI (HCT-15 colon): > 100 µM; TGI (M14 melanoma): > 100 µM; TGI (HCC-2998 colon): > 100 µM; TGI (SN12C renal): > 100 µM; TGI (SR leukemia): > 100 µM; TGI (HT29 colon): > 100 µM; TGI (OVCAR-8 ovarian): > 100 µM; TGI (HCT-116 colon): > 100 µM; TGI (UO-31 renal): > 100 µM; TGI (UACC-257 melanoma): > 100 µM; TGI (RPMI-8226 leukemia): > 100 µM; TGI (SW-620 colon): > 100 µM

Which results are given for `CC(C)(C)[Si](C)(C)OCC1CCC(n2cnc3c(N)ncnc32)O1` (stereo not given)?
TGI (K-562 leukemia): > 100 µM; TGI (SK-OV-3 ovarian): > 100 µM; TGI (HL-60(TB) leukemia): > 100 µM; TGI (KM12 colon): > 100 µM; TGI (NCI-H460 lung): > 100 µM; TGI (HCT-15 colon): > 100 µM; TGI (M14 melanoma): > 100 µM; TGI (SN12C renal): > 100 µM; TGI (HT29 colon): > 100 µM; TGI (HOP-62 NSCLC): > 100 µM; TGI (OVCAR-8 ovarian): > 100 µM; TGI (HCT-116 colon): > 100 µM; TGI (UO-31 renal): > 100 µM; TGI (UACC-257 melanoma): > 100 µM; TGI (RPMI-8226 leukemia): > 100 µM; TGI (SW-620 colon): > 100 µM

For `CC1=CC(=O)C(=O)C2=C1OC1(C2)C(C)CCC2C3(C)CCC(O)C(C)(C)C3CCC21C` (stereo not given), which TGI (K-562 leukemia) is on record?
Its TGI is 54.1 µM.

What about the TGI (SK-OV-3 ovarian) of the same compound?
The TGI was 73.8 µM.

What about the TGI (HL-60(TB) leukemia) of the same compound?
The TGI was 5.51 µM.

What about the TGI (KM12 colon) of the same compound?
The TGI was 29.9 µM.

And the TGI (SF-539 CNS)?
The TGI was over 100 µM.

What about the TGI (NCI-H460 lung) of the same compound?
The TGI was 35.1 µM.

What about the TGI (HCT-15 colon) of the same compound?
Its TGI is 42.1 µM.

And the TGI (M14 melanoma)?
Its TGI is 37.2 µM.

And the TGI (HCC-2998 colon)?
Its TGI is 34 µM.

What about the TGI (SN12C renal) of the same compound?
The TGI was over 100 µM.

And the TGI (SR leukemia)?
Its TGI is over 100 µM.

And the TGI (HT29 colon)?
The TGI was 40.1 µM.

And the TGI (HOP-62 NSCLC)?
The TGI was 35 µM.

And the TGI (OVCAR-8 ovarian)?
Its TGI is 44.7 µM.

And the TGI (HCT-116 colon)?
Its TGI is 30.2 µM.

And the TGI (UO-31 renal)?
The TGI was 34.4 µM.

And the TGI (UACC-257 melanoma)?
The TGI was 34.3 µM.

What about the TGI (RPMI-8226 leukemia) of the same compound?
Its TGI is 88.3 µM.

And the TGI (SW-620 colon)?
Its TGI is 46.1 µM.

`N=C(N)c1csc([C@@H]2O[C@H](CO)[C@@H](O)[C@H]2O)n1` was tested. Which TGI (EKVX NSCLC) did it give?
The TGI was over 100 µM.

What about the TGI (K-562 leukemia) of the same compound?
The TGI was over 100 µM.

And the TGI (SK-OV-3 ovarian)?
Its TGI is over 100 µM.

What about the TGI (HL-60(TB) leukemia) of the same compound?
The TGI was over 100 µM.

And the TGI (KM12 colon)?
Its TGI is over 100 µM.

And the TGI (SF-539 CNS)?
Its TGI is over 100 µM.

What about the TGI (NCI-H460 lung) of the same compound?
The TGI was over 100 µM.

And the TGI (HCT-15 colon)?
The TGI was over 100 µM.

What about the TGI (M14 melanoma) of the same compound?
The TGI was over 100 µM.

What about the TGI (HCC-2998 colon) of the same compound?
The TGI was over 100 µM.

What about the TGI (SN12C renal) of the same compound?
Its TGI is over 100 µM.

What about the TGI (SR leukemia) of the same compound?
The TGI was over 100 µM.

What about the TGI (OVCAR-8 ovarian) of the same compound?
Its TGI is over 100 µM.

What about the TGI (HCT-116 colon) of the same compound?
Its TGI is over 100 µM.

And the TGI (UO-31 renal)?
The TGI was over 100 µM.

What about the TGI (UACC-257 melanoma) of the same compound?
Its TGI is over 100 µM.

And the TGI (RPMI-8226 leukemia)?
The TGI was over 100 µM.

And the TGI (SW-620 colon)?
Its TGI is over 100 µM.
